The text below walks through data of patent publication US7109243B2 (IRM LLC, priority 2003, dated 2006).

The target of one assay is T1, Cathepsin K (Homo sapiens, UniProt P43235).
T1 sequence (P43235 115-329): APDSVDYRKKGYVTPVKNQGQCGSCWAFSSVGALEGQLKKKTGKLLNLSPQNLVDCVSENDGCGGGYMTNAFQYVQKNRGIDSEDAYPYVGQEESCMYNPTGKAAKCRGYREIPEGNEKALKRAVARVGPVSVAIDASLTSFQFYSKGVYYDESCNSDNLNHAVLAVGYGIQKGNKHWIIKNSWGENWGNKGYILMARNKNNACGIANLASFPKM
Nature of the assay: Cathepsin K inhibition assay (fluorogenic peptide substrate); selectivity ratio vs cathepsin S. It counts as biochemical. The settings on record: ratio of cathepsin K inhibition constant to cathepsin S inhibition constant; Table II. In outline: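 Inhibition constants for competitive inhibitors come from apparent values fitted to enzyme progress curves. Substrate, acetyl-Lys-His-Pro-Lys-aminocarbamoylcoumarin (40 μM final), starts the reaction; fluorescence rise read at 380 nm excitation, 450 nm emission. Selectivity ratio: other cathepsin constant over cathepsin S constant.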

Another assay addresses Cathepsin S (Homo sapiens, UniProt P25774). Nature of the assay: Cathepsin S inhibition assay (fluorogenic peptide substrate). It counts as biochemical. To be noted: Table II, compounds of Formula I; read-out: Ki Cat. S. A digest of the protocol: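 Ki values come from nonlinear fitting of inhibited hydrolysis rates, taking free and total inhibitor concentrations as equal. Rates measured as rising fluorescence at 380/450 nm after reaction start with 50 μM final acetyl-HPVK-aminocarbamoylcoumarin.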

Molecules are shown by their SMILES.

Cathepsin S, sequence (P25774 115-331, species assumed): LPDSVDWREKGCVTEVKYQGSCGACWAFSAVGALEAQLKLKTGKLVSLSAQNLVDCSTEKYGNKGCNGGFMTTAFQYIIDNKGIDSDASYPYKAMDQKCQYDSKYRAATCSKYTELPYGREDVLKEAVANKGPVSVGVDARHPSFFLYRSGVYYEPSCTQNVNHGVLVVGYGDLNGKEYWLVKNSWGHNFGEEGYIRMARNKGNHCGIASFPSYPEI

By Ki is commonly meant the equilibrium dissociation constant of an inhibitor or competing ligand from its target. Take `COc1ccc(NCCNC(=O)[C@H](CC2CCCCC2)NC(=O)c2ccc(Br)o2)cc1` [Compound 177, (S)-5-Bromo-furan-2-carboxylic acid {2-cyclohexyl-1-[2-(4-methoxy-phenylamino)-ethylcarbamoyl]-ethyl}-amide]: the “Selectivity for Cat. S over Cat. K” value at Cathepsin K was “++ (++, >100)”. Moreover, the Ki on Cathepsin S is under 100 nM.

Regarding `COc1ccc(NCCNC(=O)[C@H](CC2CCCCC2)NC(=O)c2ccc(Br)s2)cc1` [Compound 182, (S)-5-Bromo-thiophene-2-carboxylic acid {2-cyclohexyl-1-[2-(4-methoxy-phenylamino)-ethylcarbamoyl]-ethyl}-amide], at Cathepsin K, the “Selectivity for Cat. S over Cat. K” value is “+ (+, >10)”. At Cathepsin S, the Ki is under 100 nM.

In the case of `COc1ccc(NCCNC(=O)[C@H](Cc2ccc(Oc3cc(Cl)cc(Cl)c3)cc2)NC(=O)c2cccc(C)c2)cc1` [Compound 18, (S)-N-{2-[4-(3,5-Dichloro-phenoxy)-phenyl]-1-[2-(4-methoxy-phenylamino)-ethylcarbamoyl]-ethyl}-3-methyl-benzamide], at Cathepsin K, the “Selectivity for Cat. S over Cat. K” value is “+ (+, >10)”. Besides, the Ki on Cathepsin S is under 10000 nM.

As for `CC(C(=O)N[C@@H](CC1CCCCC1)C(=O)NCCNc1ccc(F)cc1)c1ccc(F)cc1` (stereo partly drawn) [Compound 310, N-{2-cyclohexyl-1-(S)-[2-(4-fluoro-phenylamino)-ethylcarbamoyl]-ethyl}-2-(4-fluoro-phenyl)-propionamide], the “Selectivity for Cat. S over Cat. K” value at Cathepsin K is “++ (++, >100)”. Besides, on Cathepsin S, the inhibition constant Ki was under 100 nM.

Turning to `COc1ccc(NCCNC(=O)[C@H](CC2CCCCC2)NC(=O)c2cccc(-c3ccc(Cl)cc3)c2)cc1` [Compound 175, (S)-4′-Chloro-biphenyl-3-carboxylic acid {2-cyclohexyl-1-[2-(4-methoxy-phenylamino)-ethylcarbamoyl]-ethyl}-amide], on Cathepsin K, the “Selectivity for Cat. S over Cat. K” value is “+++ (+++, >1000)”. In addition, at Cathepsin S, the Ki was under 100 nM.

In the case of `N#Cc1cccc(C(=O)N[C@@H](CC2CCCCC2)C(=O)NCCNc2ccc(F)cc2)c1` [Compound 321, 3-Cyano-N-(S)-{2-cyclohexyl-1-[2-(4-fluoro-phenylamino)-ethylcarbamoyl]-ethyl}-benzamide], the “Selectivity for Cat. S over Cat. K” value on Cathepsin K is given as “++ (++, >100)”. The Ki at Cathepsin S was under 1000 nM.

For the molecule `O=C(N[C@@H](CC1CCCCC1)C(=O)NCCNc1ccc(OC(F)(F)F)cc1)C1CN(Cc2ccccc2)CCO1` (stereo partly drawn) [Compound 32, 4-Benzyl-morpholine-2-carboxylic acid (S)-{2-cyclohexyl-1-[2-(4-trifluoromethoxy-phenylamino)-ethylcarbamoyl]-ethyl}-amide], on Cathepsin K, the “Selectivity for Cat. S over Cat. K” value is “+ (+, >10)”. Further, the Ki on Cathepsin S is under 100 nM.

Take `COc1ccc(NCCNC(=O)[C@H](CC2CCCCC2)NC(=O)c2cccc(N(C)C)c2)cc1` [Compound 119, (S)-N-{2-Cyclohexyl-1-[2-(4-methoxy-phenylamino)-ethylcarbamoyl]-ethyl}-3-dimethylamino-benzamide]: the “Selectivity for Cat. S over Cat. K” value at Cathepsin K is given as “+ (+, >10)”. Also, the Ki at Cathepsin S is under 100 nM.

Turning to `O=C(N[C@@H](CC1CCCCC1)C(=O)NCCNc1ccc(OC(F)(F)F)cc1)c1ccc(Oc2ccccc2)cc1` [Compound 141, N-{2-cyclohexyl-1-(S)-[2-(4-trifluoromethoxy-phenylamino)-ethylcarbamoyl]-ethyl}-4-phenoxy-benzamide], the “Selectivity for Cat. S over Cat. K” value at Cathepsin K is “+ (+, >10)”. For the same molecule, the Ki at Cathepsin S is under 100 nM.

`O=C(N[C@@H](CC1CCCCC1)C(=O)NCCNc1ccc(OC(F)(F)F)cc1)c1ccc(-c2ccccc2F)o1` [Compound 212, (S)-5-(2-Fluoro-phenyl)-furan-2-carboxylic acid {2-cyclohexyl-1-[2-(4-trifluoromethoxy-phenylamino)-ethylcarbamoyl]-ethyl}-amide]: the “Selectivity for Cat. S over Cat. K” value on Cathepsin K is recorded as “++ (++, >100)”. At Cathepsin S, the inhibition constant (Ki) is under 100 nM.

Take `O=C(N[C@@H](CC1CCCCC1)C(=O)NCCNc1ccc(OC(F)(F)F)cc1)c1cccc(CN2CCOCC2)c1` [Compound 200, (S)-N-{2-Cyclohexyl-1-[2-(4-trifluoromethoxy-phenylamino)-ethylcarbamoyl]-ethyl}-3-morpholin-4-ylmethyl-benzamide]: the “Selectivity for Cat. S over Cat. K” value at Cathepsin K is listed as “+ (+, >10)”. Further, the Ki at Cathepsin S is under 100 nM.

On to `COc1ccc(NCCNC(=O)[C@H](Cc2ccc(-c3cccc(OC)c3OC)cc2)NC(=O)c2cccc(C)c2)cc1` [Compound 279, (S)-N-{2-(2′,3′-Dimethoxy-biphenyl-4-yl)-1-[2-(4-methoxy-phenylamino)-ethylcarbamoyl]-ethyl}-3-methyl-benzamide], for which the “Selectivity for Cat. S over Cat. K” value on Cathepsin K is “++ (++, >100)”. At Cathepsin S, the Ki is under 1000 nM.

With `COc1ccc(NCCNC(=O)[C@H](CCC2CCCCC2)NC(=O)c2ccc(-c3ccccc3)cc2)cc1` [Compound 130, (S)-Biphenyl-4-carboxylic acid {3-cyclohexyl-1-[2-(4-methoxy-phenylamino)-ethylcarbamoyl]-propyl}-amide], on Cathepsin K, the “Selectivity for Cat. S over Cat. K” value is reported as “+ (+, >10)”. Also, the Ki at Cathepsin S was under 10000 nM.

As to `COc1ccc(NCCNC(=O)C(NC(=O)c2cccc(C)c2)C(C)c2ccc([N+](=O)[O-])cc2)cc1` (stereo not drawn) [Compound 266, N-[1-[2-(4-Methoxy-phenylamino)-ethylcarbamoyl]-2-(4-nitro-phenyl)-propyl]-3-methyl-benzamide], at Cathepsin K, the “Selectivity for Cat. S over Cat. K” value is “+ (+, >10)”. Also, the inhibition constant (Ki) on Cathepsin S was under 1000 nM.

Take `O=C(N[C@@H](CC1CCCCC1)C(=O)NCCNc1ccc(OC(F)(F)F)cc1)C1CC(=O)N(Cc2ccco2)C1` (stereo partly drawn) [Compound 39, 1-Furan-2-ylmethyl-5-oxo-pyrrolidine-3-carboxylic acid (S)-{2-cyclohexyl-1-[2-(4-trifluoromethoxy-phenylamino)-ethylcarbamoyl]-ethyl}-amide]: at Cathepsin K, the “Selectivity for Cat. S over Cat. K” value is “++ (++, >100)”. Moreover, the Ki on Cathepsin S is under 1000 nM.

For the molecule `COc1cccc(-c2cccc(C(=O)N[C@@H](CC3CCCCC3)C(=O)NCCNc3ccc(OC(F)(F)F)cc3)c2)c1` [Compound 74, 3′-Methoxy-biphenyl-3-carboxylic acid (S)-{2-cyclohexyl-1-[2-(4-trifluoromethoxy-phenylamino)-ethylcarbamoyl]-ethyl}-amide], the “Selectivity for Cat. S over Cat. K” value on Cathepsin K is on record as “+++ (+++, >1000)”. In addition, the Ki on Cathepsin S was under 100 nM.

Regarding `COc1ccc(NCCNC(=O)[C@H](CCC2CCCCC2)NC(=O)c2ccc(-n3cncn3)cc2)cc1` [Compound 143, (S)-N-{3-Cyclohexyl-1-[2-(4-methoxy-phenylamino)-ethylcarbamoyl]-propyl}-4-[1,2,4]triazol-1-yl-benzamide], the “Selectivity for Cat. S over Cat. K” value at Cathepsin K is recorded as “++ (++, >100)”. Also, at Cathepsin S, the Ki was under 1000 nM.

On to `COc1ccc(NCCNC(=O)[C@H](CCC2CCCCC2)NC(=O)c2cccc(C#N)c2)cc1` [Compound 139, (S)-3-Cyano-N-{3-cyclohexyl-1-[2-(4-methoxy-phenylamino)-ethylcarbamoyl]-propyl}-benzamide], for which the “Selectivity for Cat. S over Cat. K” value at Cathepsin K is recorded as “+++ (+++, >1000)”. Moreover, the inhibition constant Ki at Cathepsin S is under 100 nM.

`COc1ccc(NCCNC(=O)[C@H](Cc2ccccc2)NC(=O)Nc2ccc3c(c2)OCO3)cc1` [Compound 94, (S)-2-(3-Benzo[1,3]dioxol-5-yl-ureido)-N-[2-(4-methoxy-phenylamino)-ethyl]-3-phenyl-propionamide]: the “Selectivity for Cat. S over Cat. K” value on Cathepsin K is “+ (+, >10)”. In addition, the inhibition constant (Ki) at Cathepsin S was under 10000 nM.

Take `Cc1ccc(C(C)C(=O)N[C@@H](CC2CCCCC2)C(=O)NCCNc2ccc(F)cc2)cc1` (stereo partly drawn) [Compound 309, N-{2-cyclohexyl-1-(S)-[2-(4-fluoro-phenylamino)-ethylcarbamoyl]-ethyl}-2-p-tolyl-propionamide]: the “Selectivity for Cat. S over Cat. K” value at Cathepsin K was “++ (++, >100)”. Moreover, the Ki at Cathepsin S was under 100 nM.

Consider `O=C(N[C@@H](CC1CCCCC1)C(=O)NCCNc1ccc(OC(F)(F)F)cc1)c1ccc(Cn2cnc3ccccc32)cc1` [Compound 43, 4-Benzoimidazol-1-ylmethyl-N-{2-cyclohexyl-1-(S)-[2-(4-trifluoromethoxy-phenylamino)-ethylcarbamoyl]-ethyl}-benzamide], for which the “Selectivity for Cat. S over Cat. K” value on Cathepsin K is given as “+ (+, >10)”. Further, the Ki at Cathepsin S was under 100 nM.

Consider `O=C(N[C@@H](CC1CCCCC1)C(=O)NCCNc1ccc(OC(F)(F)F)cc1)c1ccc(-c2cccc(F)c2)o1` [Compound 31, 5-(3-Fluoro-phenyl)-furan-2-carboxylic acid (S)-{2-cyclohexyl-1-[2-(4-trifluoromethoxy-phenylamino)-ethylcarbamoyl]-ethyl}-amide], for which the “Selectivity for Cat. S over Cat. K” value at Cathepsin K is given as “+ (+, >10)”. Further, the Ki on Cathepsin S was under 100 nM.

On to `CS(=O)(=O)c1ccc(C(=O)N[C@@H](CC2CCCCC2)C(=O)NCCNc2ccc(OC(F)(F)F)cc2)s1` [Compound 53, 5-Methanesulfonyl-thiophene-2-carboxylic acid (S)-{2-cyclohexyl-1-[2-(4-trifluoromethoxy-phenylamino)-ethylcarbamoyl]-ethyl}-amide], for which, at Cathepsin K, the “Selectivity for Cat. S over Cat. K” value is reported as “+++ (+++, >1000)”. In addition, the Ki on Cathepsin S was under 100 nM.

For the molecule `COc1ccc(CC(=O)N[C@@H](CC2CCCCC2)C(=O)NCCNc2ccc(F)cc2)cc1` [Compound 301, 3-Cyclohexyl-N-[2-(4-fluoro-phenylamino)-ethyl]-2-(S)-[2-(4-methoxy-phenyl)-acetylamino]-propionamide], at Cathepsin K, the “Selectivity for Cat. S over Cat. K” value was “++ (++, >100)”. For the same molecule, the Ki at Cathepsin S is under 100 nM.
